In US7678787B2, “Pyrrolobenzodiazepine pyridine carboxamides and derivatives as follicle-stimulating hormone receptor antagonists” (Wyeth, priority 2005, dated 2010):

Key:
human FSH receptor = target: T1, human FSH receptor (Homo sapiens, UniProt P23945); assay: FSH receptor-dependent CRE-luciferase reporter gene assay (CHO FSH-R 6CRE-Luc cells); assay type: cell-based; settings: dose-response format in presence of EC50 of purified human FSH; * n=3, ** n=2 averages
T1 construct: host or cells: CHO-K1 (CHO FSH-R 6CRE-Luc, 1D7 cells)
T1 sequence (P23945 18-695): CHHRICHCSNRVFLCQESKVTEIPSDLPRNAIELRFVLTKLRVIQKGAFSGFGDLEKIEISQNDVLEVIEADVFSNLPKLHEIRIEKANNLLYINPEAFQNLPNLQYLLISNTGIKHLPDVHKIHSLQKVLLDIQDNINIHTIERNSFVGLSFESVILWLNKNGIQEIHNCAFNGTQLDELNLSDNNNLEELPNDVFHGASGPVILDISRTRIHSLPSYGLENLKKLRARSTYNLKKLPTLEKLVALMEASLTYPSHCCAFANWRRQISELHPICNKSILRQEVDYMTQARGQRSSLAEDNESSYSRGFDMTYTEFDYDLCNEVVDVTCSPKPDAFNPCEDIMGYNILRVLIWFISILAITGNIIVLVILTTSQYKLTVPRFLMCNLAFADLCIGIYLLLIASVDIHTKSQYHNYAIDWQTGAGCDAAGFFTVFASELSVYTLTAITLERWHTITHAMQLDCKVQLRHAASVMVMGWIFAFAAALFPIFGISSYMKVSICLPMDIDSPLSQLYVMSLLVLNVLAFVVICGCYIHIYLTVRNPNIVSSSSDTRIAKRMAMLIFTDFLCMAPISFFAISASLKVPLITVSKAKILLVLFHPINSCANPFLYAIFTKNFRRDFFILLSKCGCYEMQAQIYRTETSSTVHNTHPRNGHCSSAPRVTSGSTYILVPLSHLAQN
Description: FOLLICLE-STIMULATING HORMONE RECEPTOR-DEPENDENT CRE-LUCIFERASE REPORTER GENE ASSAY FOR THE IDENTIFICATION OF FOLLICLE-STIMULATING HORMONE (FSH) ANTAGONISTS
A Chinese hamster ovarian cell line that stably produces the human FSH receptor and a luciferase reporter gene regulated by cAMP response elements was used to identify and determine the relative potencies of human FSH receptor antagonists. See for example, Kelton, C. A., et al. Mol. Cell. Endocrinol. 89:141-151 (1992), Tilly, J. L., et al. Endocrinology 131:799-806(1992), and George, S. E., et al. J. Biomol. Screening 2:235-240 (1997).
Compound Vehicle: Stock compounds were solubilized in an appropriate vehicle, e.g., phosphate buffered saline (PBS) or dimethyl sulfoxide (DMSO), at 30 mM. The compounds subsequently were diluted in DMSO to working dilutions of 1 and 20 or 30 mM for 2-dose testing format and 1 μM-10 mM for dose-response format. The DMSO dilutions were diluted 500-fold in sterile growth medium [D-MEM/F-12 (GIBCO/BRL; Grand Island, N.Y.) containing 15 mM HEPES, 2 mM l-glutamine, pyridoxine hydrochloride, phenol red and 5% FETALCLONE® II (HyClone Laboratories, Inc; Logan, Utah), 0.2% DMSO, 100 units penicillin G/ml, and 100 μg streptomycin sulfate/ml (GIBCO/BRL)]. The concentration of the vehicle in each of the compound dilutions was the same.
Positive Controls: Purified human FSH (>98%) was purchased from Cortex Biochem, Inc. (San Leandro, Calif.) and 3-[(2S*,5R*)-5-{[2-(1H-Indol-3-yl)-ethylcarbamoyl]-methyl}-4-oxo-2-(5-phenylethynyl-thiophen-2-yl)-thiazolidin-3-yl]-benzamide (an FSH-R thiazolidinone antagonist) was prepared by processes described by R. A. Scheuerman et al. in U.S. Pat. No. 6,426,357 (Affymax).
The CHO FSH-R 6CRE-Luc cells (1D7 cells) were obtained from Affymax (Palo Alto, Calif.). These Chinese hamster ovary cells (CHO-K1) were engineered genetically to stably express the recombinant human FSH receptor gene and a luciferase reporter gene under the regulation of 6 copies of a cAMP response element. The cells were plated one day prior to treatment into 96-well white opaque plates at a density of 50,000 cells/100 μl/well in growth medium. On the day of treatment, the growth medium was removed from the wells by aspiration and 50 μl of fresh growth medium was added to each well. The cells were incubated at 37° C. in a humidified incubator with 5% CO2/95% air.
The treated cells were incubated for 4 hours at 37° C. in a humidified incubator with 5% CO2/95% air. At the end of the incubation period, luciferase activity was measured by chemiluminescence using a commercially available kit (LucScreen, Tropix, Inc., Bedford, Mass.) according to the manufacturer's specifications, except that Buffer 1 and Buffer 2 were mixed together in equal proportion prior to the addition of 100 μl of the combined reagents to each well. Chemiluminescence was detected using a luminometer (EG & G Berthold Microlumat LB 96 P, Wallac, Gaithersburg, Md.) with chemiluminescence measured for 1 sec/well. Background luminescence was measured for each well prior to the addition of the LucScreen reagent.
In the 96-well 2-dose format, each compound was tested in duplicate at each dose. […] One plate was used to test a maximum of 22 compounds.
The EC50 of purified human FSH alone was tested in triplicate with each test compound. The doses chosen to test each compound were extrapolated from the initial 2-dose screening process. Along with the test compounds, purified human FSH also was tested in a dose response (0.03, 0.1, 0.3, 1, 3, 10, and 30 ng/ml) for a positive control and quality control. One plate was used for 3 test compounds and the FSH positive control.
Luciferase activity is expressed as relative light units/sec/well. Luciferase activity in antagonist was compared to the appropriate negative and positive controls. For 2-dose testing, results are reported as luciferase activity and are expressed as percent inhibition of the response obtained from the EC50 of FSH.

hFSH-R = target: T2, hFSH-R (Homo sapiens, UniProt P23945); assay: cAMP accumulation (RIA) in CHO-3D2 cells (hFSH-R), hFSH-induced; assay type: cell-based; settings: inhibition of cAMP accumulation induced by hFSH at EC20, CHO-3D2 cells
T2 construct: expressed in transfected cells; host or cells: CHO-3D2 cells (CHO-K1 parental line)
T2 sequence (P23945 18-695): T1 sequence (P23945 18-695)
Experimental: IN VITRO BIO-ASSAY OF AGONISTS AND ANTAGONISTS TO THE FSH RECEPTOR. SELECTIVITY AND DEPENDENCY OF AGONISTS AND ANTAGONISTS TO THE FSH RECEPTOR
Compound Vehicle: Stock compounds were solubilized in 100% DMSO (Sigma-Aldrich Chemical Co., St. Louis, Mo.) at a concentration of 30 mM. The compounds subsequently were diluted in sterile assay medium consisting of Opti-MEM® I (Invitrogen/Life Technologies, Carlsbad, Calif.) with 0.1% (w/v) BSA (Sigma-Aldrich) prior to use in the bio-assay. The final concentration of DMSO in the assay was 0.1%.
Plated cells are then incubated at 37° C. in a humidified 5% CO2/95% air atmosphere.
Assay: On the day of the assay, cells were washed three times with 100 μl/well of assay medium consisting of Opti-MEM® I (Invitrogen/Life Technologies) with 0.1% (w/v) BSA (Sigma-Aldrich). Medium was removed and 100 μl of assay medium was added to each well. Plates were incubated for an additional 30 minutes at 37° C. […] Reactions were terminated by the addition of 50 μl of 0.2N hydrochloric acid to each well and cAMP-accumulation was measured by radioimmunoassay (RIA) using a commercially available kit (Amersham Biosciences, Piscataway, N.J.).
All test compounds were evaluated in a dose-response paradigm ranging from 0.01 to 30 μM. Controls and test compounds were evaluated in quadruplicate in a 96-well format.
Along with the test compounds, FSH was run also as a postive control in the agonist mode using concentrations ranging from 0.1-1000 ng/ml.
Data were analyzed by one-way analysis of variance and significant differences between treatments and control determined by Least Significant Difference test.
Test compounds were compared to the effect of purified human FSH.

SMILES	IC50 (human FSH receptor)	IC50 (hFSH-R)	melting point
Cc1cc(C(=O)N2Cc3ccc(C(=O)NCc4cccnc4)n3Cc3ccccc32)ccc1-c1ccccc1C(F)(F)F [Example 5]	13.8 µM	1.5 µM	
COc1ccccc1-c1ccc(C(=O)N2Cc3ccc(C(=O)NCc4cccnc4Oc4ccccc4)n3Cc3ccccc32)cc1 [Example 7, 10-[(2′-METHOXY-1,1′-BIPHENYL-4-YL)CARBONYL]-N-[(2-PHENOXYPYRIDIN-3-YL)METHYL]-10,11-DIHYDRO-5H-PYRROLO[2,1-C][1,4]BENZODIAZEPINE-3-CARBOXAMIDE]	5.4 µM	0.7 µM	
Cc1cc(C(=O)N2Cc3ccc(C(=O)NCc4cccnc4)n3Cc3ccccc32)ccc1-c1ccccc1F [Example 20]	3.7 µM	1.3 µM	
Cc1cc(C(=O)N2Cc3ccc(C(=O)NCc4cccnc4)n3Cc3ccccc32)ccc1-c1ccccc1Cl [Example 21]	2.9 µM	1 µM	
Cc1cc(C(=O)N2Cc3ccc(C(=O)NCc4cccnc4)n3Cc3ccccc32)ccc1-c1ccc(Cl)cc1 [Example 24]	10.7 µM	1.6 µM	
O=C(NCc1cccnc1)c1ccc2n1Cc1ccccc1N(Cc1ccc(-c3ccccc3)cc1)C2 [Example 73]	2 µM		161 to 165 °C (dec.)
O=C(NCc1cccnc1)c1ccc2n1Cc1ccccc1N(C(=O)c1cccc(F)c1)C2 [Example 78]	18.1 µM		101 °C
O=C(NCc1cccnc1)c1ccc2n1Cc1ccccc1N(C(=O)c1ccc(Cl)c(Cl)c1)C2 [Example 81]	18.4 µM		192 °C
COc1ccc(C(=O)N2Cc3ccc(C(=O)NCc4cccnc4)n3Cc3ccccc32)cc1 [Example 89]	12.2 µM		110 to 112 °C
O=C(NCc1cccnc1)c1ccc2n1Cc1ccccc1N(C(=O)c1ccc(F)cc1)C2 [Example 93]	> 30 µM		171 to 173 °C
CC(C)(C)OC(=O)NCc1ccc(C(=O)N2Cc3ccc(C(=O)NCc4cccnc4)n3Cc3ccccc32)cc1 [Example 103]	> 30 µM		171 °C
O=C(NCc1cccnc1)c1ccc2n1Cc1ccccc1N(C(=O)c1ccc(-c3ccncc3)cc1)C2 [Example 110]	7.65 µM		119 to 124 °C
O=C(NCc1cccnc1)c1ccc2n1Cc1ccccc1N(C(=O)c1ccc(-c3nccs3)cc1)C2 [Example 111]	5.48 µM		178 to 179 °C
O=C(NCc1cccnc1)c1ccc2n1Cc1ccccc1N(C(=O)COc1ccc(Cl)cc1)C2 [Example 138]	15.8 µM		169 to 171 °C
Cc1cc(Cl)ccc1OCC(=O)N1Cc2ccc(C(=O)NCc3cccnc3)n2Cc2ccccc21 [Example 139]	9.86 µM		168 °C
O=C(NCc1cccnc1)c1ccc2n1Cc1ccccc1N(C(=O)Cc1ccc(Cl)cc1)C2 [Example 142]	18.5 µM		83 °C

Next, values leading:

IC50 (human FSH receptor)	IC50 (hFSH-R)	melting point	SMILES
0.317 µM	0.15 µM		CC(O)c1ccccc1-c1ccc(C(=O)N2Cc3ccc(C(=O)NCc4cccnc4)n3Cc3ccccc32)cc1 (single isomer, unassigned; (+)) [Example 54]
0.159 µM	0.12 µM		CC(O)c1ccccc1-c1ccc(C(=O)N2Cc3ccc(C(=O)NCc4cccnc4)n3Cc3ccccc32)cc1 (single isomer, unassigned; (-)) [Example 53]
2.8 µM	0.7 µM		O=C(NCc1cccnc1)c1ccc2n1Cc1ccccc1N(C(=O)c1ccc(-c3ccccc3)cc1)C2 [Example 13]
1.61 µM	0.77 µM		CSc1ccccc1-c1ccc(C(=O)N2Cc3ccc(C(=O)NCc4cccnc4)n3Cc3ccccc32)cc1 [Example 14, 10-{[2′-(METHYLTHIO)-1,1′-BIPHENYL-4-YL]CARBONYL}-N-(PYRIDIN-3-YLMETHYL)-10,11-DIHYDRO-5H-PYRROLO[2,1-C][1,4]BENZODIAZEPINE-3-CARBOXAMIDE 0.67 HYDRATE]
> 30 µM		163 to 165 °C	CC(C)(C)OC(=O)c1ccccc1-c1ccc(C(=O)N2Cc3ccc(C(=O)NCc4cccnc4)n3Cc3ccccc32)cc1 [Example 64]
> 30 µM		189 to 191 °C	O=C(O)c1ccccc1-c1ccc(C(=O)N2Cc3ccc(C(=O)NCc4cccnc4)n3Cc3ccccc32)cc1 [Example 65, 4′-{[3-{[(PYRIDIN-3-YLMETHYL)AMINO]CARBONYL}-5H-PYRROLO[2,1-C][1,4]BENZODIAZEPIN-10(11H)-YL]CARBONYL}-1,1′-BIPHENYL-2-CARBOXYLIC ACID]
14.5 µM		221 to 224 °C	CNC(=O)c1ccccc1-c1ccc(C(=O)N2Cc3ccc(C(=O)NCc4cccnc4)n3Cc3ccccc32)cc1 [Example 69]
